“Also recorded” adds a separate entry of the source.
Assays:
[1] = tested on: Staphylococcus aureus 209P; assay: MIC, antibacterial activity (agar dilution); type: cell-based; conditions: Mueller Hinton Agar, about 18 h at about 37° C
[2] = tested on: Staphylococcus aureus S tA 1; assay: MIC, antibacterial activity (agar dilution); type: cell-based; conditions: STA1, Mueller Hinton Agar, about 18 h at about 37° C
[3] = tested on: Staphylococcus aureus Weichbrodt; assay: MIC, antibacterial activity (agar dilution); type: cell-based; conditions: Mueller Hinton Agar, about 18 h at about 37° C
Staphylococcus epidermis = assay: MIC, antibacterial activity (agar dilution); type: cell-based; conditions: Mueller Hinton Agar, about 18 h at about 37° C
Staphylococcus faecalis = assay: MIC, antibacterial activity (agar dilution); type: cell-based; conditions: Mueller Hinton Agar, about 18 h at about 37° C
Streptococcus bovis 3 = assay: MIC, antibacterial activity (agar dilution); type: cell-based; conditions: Streptococcus equinus, Mueller Hinton Agar, about 18 h at about 37° C
Streptococcus uberis 3 = assay: MIC, antibacterial activity (agar dilution); type: cell-based; conditions: Mueller Hinton Agar, about 18 h at about 37° C
Streptococcus uberis 8 = assay: MIC, antibacterial activity (agar dilution); type: cell-based; conditions: Mueller Hinton Agar, about 18 h at about 37° C
[4] = tested on: Bacteroides thetaiotaomicron ATCC 29741; assay: MIC, antibacterial activity (agar dilution); type: cell-based; conditions: ATCC29741, anaerobic, Mueller Hinton Agar + 2% Fildes, about 48 h at about 37° C
Experimental: (§1) Description of the test method used
(§2) The strains used, identified in the following table, were thawed at the time of use and then diluted to obtain the following concentrations:
(§3) 10^7 bacteria/ml for the aerobic bacteria
(§4) 10^6 bacteria/ml for the anaerobic bacteria.
(§5) A stock suspension of the product of formula (II) was prepared at a concentration of 3000 mg/1 in water. It was then diluted with water to obtain concentrations of 300 mg/l, 100 mg/l, 50 mg/l and 25 mg/l.
(§6) The culture media were the following:
(§7) Mueller Hinton Agar (MHA) for the aerobic cultures
(§8) Mueller Hinton Agar (MHA)+2% Fildes (MHA) for the anaerobic cultures.
(§9) Each dilution of product was added to 20 mls of the culture medium maintained supercooled at 45° C., and the medium was then poured into Petri dishes. After gentle agitation, the dishes were dried open for about 1 hour at about 37° C.
(§10) Inoculation was carried out with a DENLEY multipoint inoculator, which deposited 10^-3 ml of each inoculum per spot.
(§11) Reading was performed after about 18 hours of incubation at about 37° C. for the aerobes and about 48 hours at about 37° C. for the anaerobes.
(§12) The minimal inhibitory concentration (MIC) was the lowest concentration for which no growth was observed.

Clostridium septicum = assay: MIC, antibacterial activity (agar dilution); type: cell-based; conditions: anaerobic, Mueller Hinton Agar + 2% Fildes, about 48 h at about 37° C
Experimental: as §1, §2, §3, §4, §5, §6, §7, §8, §9, §10, §11, §12

Escherichia coli DC2 = assay: MIC, antibacterial activity (agar dilution); type: cell-based; conditions: Mueller Hinton Agar, about 18 h at about 37° C
Experimental: as §1, §2, §3, §4, §5, §6, §7, §8, §9, §10, §11, §12

Escherichia coli DCO = assay: MIC, antibacterial activity (agar dilution); type: cell-based; conditions: Mueller Hinton Agar, about 18 h at about 37° C
Experimental: as §1, §2, §3, §4, §5, §6, §7, §8, §9, §10, §11, §12

Pasterella multocida IP = assay: MIC, antibacterial activity (agar dilution); type: cell-based; conditions: Mueller Hinton Agar, about 18 h at about 37° C
Proteus vulgaris IP A272 = assay: MIC, antibacterial activity (agar dilution); type: cell-based; conditions: IPA272, Mueller Hinton Agar, about 18 h at about 37° C
[5] = tested on: Proteus mirabilis Villette; assay: MIC, antibacterial activity (agar dilution); type: cell-based; conditions: Mueller Hinton Agar, about 18 h at about 37° C
[6] = tested on: Bacteroides fragilis ATCC 25285; assay: MIC, antibacterial activity (agar dilution); type: cell-based; conditions: ATCC25285, anaerobic, Mueller Hinton Agar + 2% Fildes, about 48 h at about 37° C
[7] = tested on: Bacteroides melaninogenicus ATCC 15930; assay: MIC, antibacterial activity (agar dilution); type: cell-based; conditions: Prevotella intermedia, ATCC15930; anaerobic, Mueller Hinton Agar + 2% Fildes, about 48 h at about 37° C
[8] = Use as a growth factor in weaned piglets (Example 5); type: in vivo, weaned Large-White Belgian Landrace crossed piglets; conditions: for Initial weight: start of period 14-28 days; for Index of consumption: consumption/weight gain ratio
[9] = Use as a growth factor in piglets (Example 6); type: in vivo, weaned Large-White Belgian Landrace crossed piglets; conditions: for Final weight: control 24.7
Description: 130 weaned Large-White Belgian Landrace crossed piglets were used. The experiment began 2 weeks after weaning of the animals, i.e. at a mean age of 42 days.
The animals received the experimental feed ad libitum in the form of granules 2.5 mm in diameter.
The animals were weighed at the beginning, middle and end of the experiment. The consumptions were noted every week.
Tables 7, 8 and 9 respectively show the percentage composition and the characteristics of the diets, the percentage composition of the CMV and the percentage composition of the premixes.
The results are shown in Table 10 for the period 0-14 days, Table 11 for the period 14-28 days and Table 12 for the period 0-28 days.

C/C=C\C=C\C1OC(O)(C(CC)C(=O)NC/C=C/C=C(\C)C(OC)C(C)C2CC(O)C(/C=C/C=C/C=C/C(=O)O)O2)C(O)C(O)C1(C)C (centres unmarked) [formula (II)]
MIC [1]: > 300 µg/mL
MIC [2]: > 300 µg/mL
MIC [3]: > 300 µg/mL
MIC (Staphylococcus epidermis): > 300 µg/mL
MIC (Staphylococcus faecalis): > 300 µg/mL
MIC (Streptococcus bovis 3): > 300 µg/mL
MIC (Streptococcus uberis 3): 50 µg/mL
MIC (Streptococcus uberis 8): 100 µg/mL
MIC [4]: > 100 µg/mL
MIC (Clostridium septicum): > 100 µg/mL
MIC (Escherichia coli DC2): 100 µg/mL
MIC (Escherichia coli DCO): > 300 µg/mL
MIC (Pasterella multocida IP): > 300 µg/mL
MIC (Proteus vulgaris IP A272): > 300 µg/mL
MIC [5]: > 300 µg/mL
MIC [6]: > 100 µg/mL
MIC [7]: > 100 µg/mL
Weight gain ([8]; 40 ppm in feed, 0-14 days, control 329): 360 g/day
Consumption ([8]; 40 ppm in feed, 0-14 days, control 614): 625 g/day
Weight gain ([8]; 40 ppm in feed, 0-28 days, control 445): 490 g/day
Consumption ([8]; 40 ppm in feed, 0-28 days, control 822): 847 g/day
Weight gain ([8]; 40 ppm in feed, 14-28 days, control 560): 620 g/day
Consumption ([8]; 40 ppm in feed, 14-28 days, control 1031): 1068 g/day
Intermediate Weight ([8]; 40 ppm in feed, Table 4, 0-14 days, control 15.3): 15.8 kg
Intermediate Weight ([8]; 40 ppm in feed, Table 5, 14-28 days, control 23.1): 24.5 kg
Intermediate Weight ([8]; 40 ppm in feed, Table 6, 0-28 days, control 23.1): 24.5 kg
Initial weight ([8]; 40 ppm in feed, control 15.3): 15.8 kg
improvement in growth relative to the basic diet ([8]; 40 ppm, overall period 0-28 days): 10%
performances of the animals (in words) ([8]; 60 ppm compared with the same product at 40 ppm, 0-28 days): somewhat behind those observed with the same product at 40 ppm
Weight gain ([8]; 60 ppm in feed, 0-14 days, control 329): 338 g/day
Consumption ([8]; 60 ppm in feed, 0-14 days, control 614): 599 g/day
Weight gain ([8]; 60 ppm in feed, 0-28 days, control 445): 463 g/day
Consumption ([8]; 60 ppm in feed, 0-28 days, control 822): 812 g/day
Weight gain ([8]; 60 ppm in feed, 14-28 days, control 560): 588 g/day
Consumption ([8]; 60 ppm in feed, 14-28 days, control 1031): 1026 g/day
Intermediate Weight ([8]; 60 ppm in feed, Table 4, 0-14 days, control 15.3): 15.3 kg
Intermediate Weight ([8]; 60 ppm in feed, Table 5, 14-28 days, control 23.1): 23.5 kg
Intermediate Weight ([8]; 60 ppm in feed, Table 6, 0-28 days, control 23.1): 23.5 kg
Initial weight ([8]; 60 ppm in feed, control 15.3): 15.3 kg
Index of consumption ([8]; 40 ppm in feed, 0-14 days, control 1.88): 1.77
Index of consumption ([8]; 40 ppm in feed, 0-28 days, control 1.85): 1.73
Index of consumption ([8]; 40 ppm in feed, 14-28 days, control 1.86): 1.73
Index of consumption ([8]; 60 ppm in feed, 0-14 days, control 1.88): 1.78
Index of consumption ([8]; 60 ppm in feed, 0-28 days, control 1.85): 1.75
Index of consumption ([8]; 60 ppm in feed, 14-28 days, control 1.86): 1.74
effect on index of consumption (in words) ([8]; overall period 0-28 days): improved quite significantly
effect on consumption (in words) ([8]; overall period 0-28 days, listed as product II): did not bring about a significant improvement in consumption; also recorded: comparable to tylosin
Index of consumption ([9]; 10 ppm in feed, 0-14 days, control 1.76): 1.70
Weight gain ([9]; 10 ppm in feed, 0-14 days, control 368): 418 g/day
Consumption ([9]; 10 ppm in feed, 0-14 days, control 645): 694 g/day
Index of consumption ([9]; 10 ppm in feed, 0-28 days, control 1.80): 1.72
Weight gain ([9]; 10 ppm in feed, 0-28 days, control 474): 533 g/day
Consumption ([9]; 10 ppm in feed, 0-28 days, control 852): 914 g/day
Index of consumption ([9]; 10 ppm in feed, 14-28 days, control 1.84): 1.75
Weight gain ([9]; 10 ppm in feed, 14-28 days, control 579): 648 g/day
Consumption ([9]; 10 ppm in feed, 14-28 days, control 1059): 1133 g/day
Final weight ([9]; 10 ppm in feed, Table 11, 14-28 days): 26.4 kg
Final weight ([9]; 10 ppm in feed, Table 12, 0-28 days): 26.4 kg
Index of consumption ([9]; 20 ppm in feed, 0-14 days, control 1.76): 1.61
Weight gain ([9]; 20 ppm in feed, 0-14 days, control 368): 430 g/day
Consumption ([9]; 20 ppm in feed, 0-14 days, control 645): 689 g/day
Index of consumption ([9]; 20 ppm in feed, 0-28 days, control 1.80): 1.69
Weight gain ([9]; 20 ppm in feed, 0-28 days, control 474): 547 g/day
Consumption ([9]; 20 ppm in feed, 0-28 days, control 852): 927 g/day
Index of consumption ([9]; 20 ppm in feed, 14-28 days, control 1.84): 1.75
Weight gain ([9]; 20 ppm in feed, 14-28 days, control 579): 664 g/day
Consumption ([9]; 20 ppm in feed, 14-28 days, control 1059): 1164 g/day
Final weight ([9]; 20 ppm in feed, Table 11, 14-28 days): 26.8 kg
Final weight ([9]; 20 ppm in feed, Table 12, 0-28 days): 26.8 kg
Index of consumption ([9]; 40 ppm in feed, 0-14 days, control 1.76): 1.70
Weight gain ([9]; 40 ppm in feed, 0-14 days, control 368): 416 g/day
Consumption ([9]; 40 ppm in feed, 0-14 days, control 645): 701 g/day
Index of consumption ([9]; 40 ppm in feed, 0-28 days, control 1.80): 1.70
Weight gain ([9]; 40 ppm in feed, 0-28 days, control 474): 532 g/day
Consumption ([9]; 40 ppm in feed, 0-28 days, control 852): 900 g/day
Index of consumption ([9]; 40 ppm in feed, 14-28 days, control 1.84): 1.70
Weight gain ([9]; 40 ppm in feed, 14-28 days, control 579): 648 g/day
Consumption ([9]; 40 ppm in feed, 14-28 days, control 1059): 1099 g/day
Final weight ([9]; 40 ppm in feed, Table 11, 14-28 days): 26.4 kg
Final weight ([9]; 40 ppm in feed, Table 12, 0-28 days): 26.4 kg
